In patent US20260028354A1, “TETRAHYDRONAPHTHALENE DERIVATIVES AS ESTROGEN RECEPTOR DEGRADERS” (REGENT OF THE UNIVERSITY OF MICHIGAN, priority 2022, published 2026):
Like-named read-outs stand apart in the source and are kept apart here.

Experiments:
MCF-7 cells = assay: CellTiter-Glo (CTG) cell proliferation assay in MCF-7 cells; format: cell-based; conditions: Homo sapiens, MCF7, 144 h, MCF-7 cell proliferation, Day 6
From the text: CellTiter-Glo® (CTG) Assays in MCF-7 and T47D Cell Lines.
In vitro Assay: MCF-7 and T47D CTG assay

ER in MCF-7 cells = ER in MCF-7 cells (Homo sapiens (Human), UniProt P03372); assay: In-cell Western (ICW) ER degradation assay in MCF-7 cells; format: cell-based; conditions: for DC50: MCF-7, ER degradation, read-out: MCF7 DC50
ER in MCF-7 cells, sequence (P03372 whole entry): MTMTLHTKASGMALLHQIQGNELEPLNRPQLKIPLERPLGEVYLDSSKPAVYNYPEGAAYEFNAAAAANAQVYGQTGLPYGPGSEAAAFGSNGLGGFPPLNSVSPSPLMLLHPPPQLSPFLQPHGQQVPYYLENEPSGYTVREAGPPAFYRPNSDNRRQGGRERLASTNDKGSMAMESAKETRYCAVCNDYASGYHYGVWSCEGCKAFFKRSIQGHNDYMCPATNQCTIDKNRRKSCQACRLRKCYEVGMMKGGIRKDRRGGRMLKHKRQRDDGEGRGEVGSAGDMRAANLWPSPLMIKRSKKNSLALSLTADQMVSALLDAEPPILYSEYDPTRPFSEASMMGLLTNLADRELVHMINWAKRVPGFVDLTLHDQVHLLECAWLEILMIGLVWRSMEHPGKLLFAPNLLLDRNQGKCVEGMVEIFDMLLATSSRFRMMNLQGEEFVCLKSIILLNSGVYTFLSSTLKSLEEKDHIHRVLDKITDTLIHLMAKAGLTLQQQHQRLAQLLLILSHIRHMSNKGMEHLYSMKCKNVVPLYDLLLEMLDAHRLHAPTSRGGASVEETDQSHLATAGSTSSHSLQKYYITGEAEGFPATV

[1] = MCF7, read-out: MCF7 Dmax, MCF-7, maximal ER degradation, 16 hrs treatment
[2] = MCF7, MCF-7, maximal ER degradation, 16 hrs treatment, read-out: MCF7 Dmax

Dmax (ER in MCF-7 cells; [2]) [%] | Structure (SMILES) | IC50 (MCF-7 cells) [nM] | Dmax (ER in MCF-7 cells; [1]) [%] | DC50 (ER in MCF-7 cells; 16 hrs treatment) [nM]
– | COC1(CCN2CCC3(CC2)COc2c3ccc3c2CN([C@H]2CCC(=O)NC2=O)C3=O)CCN(c2ccc([C@@H]3c4ccc(O)cc4CC[C@@H]3c3ccccc3)cc2)CC1 [Compound A193, (S)-3-(1′-(2-(1-(4-((1R,2S)-6-hydroxy-2-phenyl-1,2,3,4-tetra-hydronaphthalen-1-yl)phenyl)-4-methoxypiperidin-4-yl)-ethyl)-6-oxo-6,8-dihydro-2H, 7H-spiro[furo[2,3-e]isoindole-3,4′-piperidin]-7-yl)piperidine-2,6-dione] | 10 to 100 | > 75 | < 1
> 75 | O=C1CC[C@H](N2Cc3cc4c(cc3C2=O)OC[C@@H]2CN(CC3CC5(CCN(c6cnc(C7c8ccc(O)cc8CCC7c7ccccc7)cn6)CC5)C3)CCN42)C(=O)N1 (stereo partly drawn) [Compound A194, (3S)-3-((4aS)-3-((7-(5-(6-hydroxy-2-phenyl-1,2,3,4-tetra-hydronaphthalen-1-yl)pyrazin-2-yl)-7-azaspiro[3.5]nonan-2-yl)methyl)-8-oxo-1,2,3,4,4a,5,8,10-octahydro-9H-pyrazino [1′,2′:4,5][1,4]oxazino[2,3-f]isoindol-9-yl)piperidine-2,6-dione] | > 100 | – | 1 to 10
> 75 | O=C1CC[C@H](N2Cc3c(ccc4c3OC[C@H]3CN(CC5CC6(CCN(c7cnc(C8c9ccc(O)cc9CCC8c8ccccc8)cn7)CC6)C5)CCN43)C2=O)C(=O)N1 (stereo partly drawn) [Compound A195, (3S)-3-((5aR)-7-((7-(5-(6-hydroxy-2-phenyl-1,2,3,4-tetra-hydronaphthalen-1-yl)pyrazin-2-yl)-7-azaspiro[3.5]nonan-2-yl)methyl)-1-oxo-1,3,5,5a,6,7,8,9-octahydro-2H-pyrazino [1′,2′:4,5][1,4]oxazino[2,3-e]isoindol-2-yl)piperidine-2,6-dione] | > 100 | – | < 1
> 75 | COc1c([C@@H]2c3ccc(O)cc3CC[C@@H]2c2ccccc2)ccc(N2CCC3(CC2)CC(CN2CCN4c5ccc6c(c5OC[C@H]4C2)CN([C@H]2CCC(=O)NC2=O)C6=O)C3)c1F [Compound A196, (S)-3-((R)-7-((7-(2-fluoro-4-((1S,2S)-6-hydroxy-2-phenyl-1,2,3,4-tetrahydronaphthalen-1-yl)-3-methoxyphenyl)-7-aza-spiro[3.5]nonan-2-yl)methyl)-1-oxo-1,3,5,5a,6,7,8,9-octa-hydro-2H-pyrazino[1′,2′:4,5] [1,4]oxazino[2,3-e]isoindol-2-yl)piperidine-2,6-dione] | < 10 | – | < 1
> 75 | COc1c([C@@H]2c3ccc(O)cc3CC[C@@H]2c2ccccc2)ccc(N2CCC3(CC2)CC(CN2CCN4c5cc6c(cc5OC[C@@H]4C2)C(=O)N([C@H]2CCC(=O)NC2=O)C6)C3)c1F [Compound A197, (S)-3-((S)-3-((7-(2-fluoro-4-((1S,2S)-6-hydroxy-2-phenyl-1,2,3,4-tetrahydronaphthalen-1-yl)-3-methoxyphenyl)-7-aza-spiro[3.5]nonan-2-yl)methyl)-8-oxo-1,2,3,4,4a,5,8,10-octa-hydro-9H-pyrazino[1′,2′:4,5] [1,4]oxazino[2,3-f]isoindol-9-yl)piperidine-2,6-dione] | 10 to 100 | – | < 1
– | COc1c([C@@H]2c3ccc(O)cc3CC[C@@H]2c2ccccc2)ccc(N2CCC3(CC2)CC(CN2CCC4(CC2)COc2c4ccc4c2CN([C@H]2CCC(=O)NC2=O)C4=O)C3)c1F [Compound A198, (S)-3-(1′-((7-(2-fluoro-4-((1S, 2S)-6-hydroxy-2-phenyl-1,2,3,4-tetrahydronaphthalen-1-yl)-3-methoxyphenyl)-7-aza-spiro[3.5]nonan-2-yl)methyl)-6-oxo-6,8-dihydro-2H,7H-spiro[furo[2,3-e]isoindole-3,4′-piperidin]-7-yl)piperidine-2,6-dione] | 10 to 100 | 50 to 75 | < 1
– | COc1c([C@@H]2c3ccc(O)cc3CC[C@@H]2c2ccccc2)ccc(N2CCC3(CC2)CC(CN2CCC4(CC2)COc2cc5c(cc24)CN([C@H]2CCC(=O)NC2=O)C5=O)C3)c1F [Compound A199, (S)-3-(1′-((7-(2-fluoro-4-((1S, 2S)-6-hydroxy-2-phenyl-1,2,3,4-tetrahydronaphthalen-1-yl)-3-methoxyphenyl)-7-aza-spiro[3.5]nonan-2-yl)methyl)-7-oxo-5,7-dihydro-2H,6H-spiro[furo[2,3-f]isoindole-3,4′-piperidin]-6-yl)piperidine-2,6-dione] | < 10 | 50 to 75 | < 1
– | COc1cc(N2CCC3(CC2)CC(CN2CCC4(CC2)COc2c4cc(Cl)c4c2CN([C@H]2CCC(=O)NC2=O)C4=O)C3)c(F)cc1[C@@H]1c2ccc(O)cc2CC[C@@H]1c1ccccc1 [Compound A200, (S)-3-(5-chloro-1′-((7-(2-fluoro-4-((1S,2S)-6-hydroxy-2-phenyl-1,2,3,4-tetrahydro-naphthalen-1-yl)-5-methoxy-phenyl)-7-azaspiro[3.5]nonan-2-yl)methyl)-6-oxo-6,8-dihydro-2H,7H-spiro[furo[2,3-e]isoindole-3,4′-piperidin]-7-yl)piperidine-2,6-dione] | < 10 | > 75 | < 1
– | O=C1CC[C@H](N2Cc3c(ccc4c3OCC43CCN(CC4CC5(CCN(c6cnc(C7c8ccc(O)cc8CCC7c7ccccc7)cn6)CC5)C4)CC3)C2=O)C(=O)N1 (stereo partly drawn) [Compound A201, (3S)-3-(1′-((7-(5-(6-hydroxy-2-phenyl-1,2,3,4-tetrahydro-naphthalen-1-yl)pyrazin-2-yl)-7-azaspiro[3.5]nonan-2-yl)-methyl)-6-oxo-6,8-dihydro-2H, 7H-spiro[furo[2,3-e]isoindole-3,4′-piperidin]-7-yl)piperidine-2,6-dione] | > 100 | 50 to 75 | < 1
– | O=C1CC[C@H](N2Cc3cc4c(cc3C2=O)OCC42CCN(CC3CC4(CCN(c5cnc(C6c7ccc(O)cc7CCC6c6ccccc6)cn5)CC4)C3)CC2)C(=O)N1 (stereo partly drawn) [Compound A202, (3S)-3-(1′-((7-(5-(6-hydroxy-2-phenyl-1,2,3,4-tetrahydronaph-thalen-1-yl)pyrazin-2-yl)-7-azaspiro[3.5]nonan-2-yl)meth-yl)-7-oxo-5,7-dihydro-2H,6H-spiro[furo[2,3-f]isoindole-3,4′-piperidin]-6-yl)piperidine-2,6-dione] | > 100 | 50 to 75 | < 1
– | COc1cc(N2CCC3(CC2)CC(CN2CCC4(CC2)COc2c4cc(C)c4c2CN([C@H]2CCC(=O)NC2=O)C4=O)C3)c(F)cc1[C@@H]1c2ccc(O)cc2CC[C@@H]1c1ccccc1 [Compound A203, (S)-3-(1′-((7-(2-fluoro-4-((1S,2S)-6-hydroxy-2-phenyl-1,2,3,4-tetrahydronaphthalen-1-yl)-5-methoxyphenyl)-7-azaspiro[3.5]nonan-2-yl)methyl)-5-methyl-6-oxo-6,8-dihydro-2H,7H-spiro[furo[2,3-e]isoindole-3,4′-piperidin]-7-yl)piperidine-2,6-dione] | < 10 | > 75 | < 1
50 to 75 | COc1cc(N2CC(CCN3CCN4c5ccc6c(c5OC[C@H]4C3)CN([C@H]3CCC(=O)NC3=O)C6=O)C2)c(F)cc1[C@@H]1c2ccc(O)cc2CC[C@@H]1c1ccccc1 [Compound A204, (S)-3-((R)-7-(2-(1-(2-fluoro-4-((1S,2S)-6-hydroxy-2-phenyl-1,2,3,4-tetrahydronaphthalen-1-yl)-5-methoxyphenyl)azet-idin-3-yl)ethyl)-1-oxo-1,3,5,5a, 6,7,8,9-octahydro-2H-pyrazino [1′,2′:4,5][1,4]oxazino[2,3-e]isoindol-2-yl)piperidine-2,6-dione] | > 100 | – | 1 to 10
– | COc1cc(N2CC(CCN3CCC4(CC3)COc3cc5c(cc34)CN([C@H]3CCC(=O)NC3=O)C5=O)C2)c(F)cc1[C@@H]1c2ccc(O)cc2CC[C@@H]1c1ccccc1 [Compound A205, (S)-3-(1′-(2-(1-(2-fluoro-4-((1S,2S)-6-hydroxy-2-phenyl-1,2,3,4-tetrahydronaphthalen-1-yl)-5-methoxyphenyl)-azet-idin-3-yl)ethyl)-7-oxo-5,7-dihydro-2H,6H-spiro[furo[2,3-f]isoindole-3,4′-piperidin]-6-yl)piperidine-2,6-dione] | > 100 | 25 to 50 | 1 to 10
– | COc1cc(N2CC(CCN3CCC4(CC3)COc3c4ccc4c3CN([C@H]3CCC(=O)NC3=O)C4=O)C2)c(F)cc1[C@@H]1c2ccc(O)cc2CC[C@@H]1c1ccccc1 [Compound A206, (S)-3-(1′-(2-(1-(2-fluoro-4-((1S,2S)-6-hydroxy-2-phenyl-1,2,3,4-tetrahydronaphthalen-1-yl)-5-methoxyphenyl)azet-idin-3-yl)ethyl)-6-oxo-6,8-dihydro-2H,7H-spiro[furo[2,3-e]isoindole-3,4′-piperidin]-7-yl)piperidine-2,6-dione] | > 100 | 50 to 75 | 1 to 10
– | Cc1cc2c(c3c1C(=O)N([C@H]1CCC(=O)NC1=O)C3)OCC21CCN(C[C@H]2CCC3(CCN(c4ccc([C@@H]5c6ccc(O)cc6CC[C@@H]5c5ccccc5)cc4)CC3)OC2)CC1 [Compound A210, (S)-3-(1′-(((R)-9-(4-((1R,2S)-6-hydroxy-2-phenyl-1,2,3,4-tetrahydronaphthalen-1-yl)phenyl)-1-oxa-9-azaspiro[5.5]undecan-3-yl)methyl)-5-methyl-6-oxo-6,8-dihydro-2H,7H-spiro[furo[2,3-e]isoindole-3,4′-piperidin]-7-yl)piperidine-2,6-dione] | < 10 | > 75 | < 1
